Source: PubChem BioAssay (NCI)
Where “and” joins values, the source holds several entries; their conditions need not be identical. Equal entries are not always repeated.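 Assay format: 96-well plates, 48-hour exposure. The concentration for 50% growth inhibition is given as GI50. TGI denotes the concentration required for complete inhibition of growth.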

How the values were obtained:
Assay in all cases: NCI-60 cell line screen, 48 h
[1] = tested on: ACHN renal
[2] = tested on: CAKI-1 renal
[3] = tested on: K-562 leukemia
[4] = tested on: MOLT-4 leukemia
[5] = tested on: NCI-H460 lung
[6] = tested on: OVCAR-5 ovarian
[7] = tested on: SF-295 CNS
[8] = tested on: SF-539 CNS
[9] = tested on: SNB-75 CNS
[10] = tested on: U251 CNS

Compound	GI50 [1]	TGI [1]	GI50 [2]	TGI [2]	GI50 [3]	TGI [3]	GI50 [4]	TGI [4]	GI50 [5]	TGI [5]	GI50 [6]	TGI [6]	GI50 [7]	TGI [7]	GI50 [8]	TGI [8]	GI50 [9]	TGI [9]	GI50 [10]	TGI [10]
CCOC(=O)c1ccc(NC(=O)Nc2nncs2)cc1	1.24 µM	23.9 µM	0.427 µM	> 47 µM	0.0754 µM	> 46.6 µM	0.384 µM	> 48.7 µM	0.379 µM	14.1 µM	0.78 µM	> 100 µM	0.262 µM	0.988 µM	0.162 µM	2.36 µM	0.0832 µM	19.3 µM	0.25 µM	12.7 µM
COc1cc(/C=C\c2cc(OC)c(OC)c(OC)c2)cc(N/C=C\C(=O)c2ccc(OC(F)(F)F)cc2)c1OC	5.56 µM	> 100 µM	4.96 µM	> 100 µM	2.93 µM	> 100 µM	3.99 µM	> 100 µM	3.34 µM	36.4 µM	8.2 µM	> 100 µM	4.12 µM	30.9 µM	2.21 µM	5.92 µM	2.65 µM	24 µM	3.46 µM	> 100 µM
COC[C@@H](N=C1NC(=O)/C(=C/c2ccc3ncccc3c2)S1)c1ccccc1	9.24 µM	> 25 µM	6.2 µM	> 22.4 µM	10.3 µM	> 25 µM	8.88 µM	> 25 µM	8 µM	> 25 µM	> 25 µM	> 25 µM	8.71 µM	> 25 µM	7.36 µM	> 24 µM	4.83 µM	> 22 µM	4.32 µM	> 25 µM
COc1ccc(/C=C(/C#N)C(N)=O)c(OC)c1		> 100 µM		> 100 µM		> 100 µM		> 100 µM		> 100 µM		> 100 µM		> 100 µM		> 100 µM		> 100 µM		> 100 µM
CN1C(=O)CCC1(O)C1C=CC=CC1 (stereo not given)		> 100 µM		> 100 µM		> 100 µM		> 100 µM		> 100 µM		> 100 µM		> 100 µM		> 100 µM		> 100 µM		> 100 µM
COc1ccc(C2CC(c3cccc(Nc4ccnc5cc(Cl)ccc45)c3)=NN2C=O)cc1 (stereo not given)	0.867 µM	> 100 µM	0.394 µM	29.2 µM	0.33 µM	> 100 µM	0.487 µM	> 100 µM	0.415 µM	> 100 µM	7.61 µM	> 100 µM	0.311 µM	2.57 µM	0.785 µM	8.42 µM	0.244 µM	3.01 µM	0.435 µM	3.98 µM
COc1cc(C2Cc3ncccc3-c3[nH]c(=O)c4cccnc4c32)cc(OC)c1OC (stereo not given)	0.669 µM	> 100 µM	1.58 µM	> 100 µM	0.313 µM	> 100 µM	0.535 µM	> 100 µM	0.429 µM	> 100 µM	4.82 µM	> 100 µM	0.274 µM	> 100 µM	0.269 µM	1.55 µM	0.255 µM	> 100 µM	0.524 µM	38.2 µM
Cc1nc([P+](c2ccccc2)(c2ccccc2)c2ccccc2)c(Sc2sc(-c3ccccc3)nc2[P+](c2ccccc2)(c2ccccc2)c2ccccc2)o1	1.65 µM	4.92 µM	2.69 µM	9.71 µM	0.368 µM	5.9 µM	1.8 µM	6.15 µM	1.13 µM	2.8 µM	2.29 µM	8.53 µM	2.24 µM	6.77 µM	2.3 µM	7.34 µM	1.11 µM	4.31 µM	0.344 µM	4.03 µM
O=C1NC(Cc2ccc(O)cc2)C(=O)N2CCCC12 (stereo not given)		> 100 µM		> 100 µM		> 100 µM		> 100 µM		> 100 µM		> 100 µM		> 100 µM		> 100 µM		> 100 µM		> 100 µM
CCOC(=O)C1Cc2c(cc3c4c(cccc24)N(C(C)=O)C3)N(C)C1 (stereo not given)		> 100 µM		> 100 µM		> 100 µM		> 100 µM		> 100 µM		> 100 µM		> 100 µM		10.1 µM		> 100 µM		> 100 µM
COc1ccc2c(c1)/C(=C\c1c(-c3cc(OC)ccc3OC)nc3sc(C)cn13)C(=O)N2C	28.2 µM	> 100 µM	18.3 µM	86 µM	28 µM	> 100 µM	14.1 µM	51.8 µM	24.9 µM	93.9 µM	55.7 µM	> 100 µM	13.1 µM	35.8 µM	32.9 µM	> 100 µM	6.68 µM	45.9 µM	39.7 µM	> 100 µM
Nc1nccc(-c2c(-c3ccc(F)cc3)ncn2C2CCNCC2)n1	7.61 µM and 1.41 µM	> 25 µM	> 25 µM and 7.29 µM	> 25 µM	5.92 µM and 2.92 µM	> 25 µM	17.8 µM and 7.16 µM	> 25 µM	1.55 µM and 1.36 µM	> 25 µM	9.62 µM and 5.81 µM	> 25 µM	> 12.4 µM and 5.75 µM	> 25 µM	23.5 µM and 8.37 µM	> 25 µM	2.91 µM and 1.17 µM	> 23.4 µM and 12.7 µM	3.67 µM and 1.95 µM	> 25 µM
CC(=O)O[C@H]1C(=O)[C@@]2(C)C(C(OC(=O)c3ccccc3)[C@]3(O)C[C@H](OC(=O)C(OC(=O)CCCC(=O)NCCCN(C)C)C(NC(=O)c4ccccc4)c4ccccc4)C(C)=C1C3(C)C)C1(OC(C)=O)COC1C[C@@H]2O (stereo not given in full)		> 100 µM		> 100 µM		45.4 µM		12.5 µM		8.71 µM		13.1 µM		1.28 µM		0.0184 µM		0.021 µM		20.8 µM
CCN(CCCN(C)C)Cc1cc(I)cc(C)c1O	24.9 µM	58.6 µM	18.5 µM	39.3 µM	6.95 µM	23.3 µM	17.9 µM	36.5 µM	16.4 µM	38 µM	26.8 µM	96.1 µM	15.9 µM	31.9 µM	14.8 µM	29 µM	16.1 µM	39.7 µM	21.2 µM	43.6 µM
OCCN1CCN(CCCN2c3ccccc3Sc3ccc(Cl)cc32)CC1	3.8 µM	13.6 µM	1.71 µM	4.52 µM	2.1 µM	4.45 µM	2.4 µM	5.79 µM	1.98 µM	4.22 µM	3.12 µM	12.1 µM	1.75 µM	3.65 µM	1.82 µM	3.94 µM	3.97 µM	15.6 µM	1.9 µM	4.33 µM
CCSCC1CC(O)(c2ccccc2)CC(c2ccc(F)cc2)O1 (stereo not given)	2.37 µM	6.56 µM	2.42 µM	8.16 µM	1.83 µM	3.93 µM	1.66 µM	4.14 µM	2.24 µM	4.63 µM	2.17 µM	5.09 µM	1.9 µM	3.92 µM	1.94 µM	3.84 µM	1.88 µM	5.74 µM	1.63 µM	3.3 µM
O=C(NCCCCCCCCCCCCNC(=O)c1cccc2ccccc12)c1cccc2ccccc12		> 100 µM		68.2 µM		> 100 µM		> 100 µM		> 100 µM		> 100 µM		> 83 µM		4.73 µM		> 54.6 µM		> 59.5 µM
Cc1cccc(N(C)C(=O)[C@@H]2[C@H](O)CCN2c2nc(C)cc(C(F)(F)F)c2C#N)c1	18.3 µM	41.9 µM	29.1 µM	> 100 µM	0.747 µM	> 100 µM	1.98 µM	53.8 µM	31.8 µM	> 100 µM	25.4 µM	98.2 µM	20.3 µM	54.2 µM	15.9 µM	32.2 µM	31.4 µM	> 100 µM	28.8 µM	> 100 µM
COC(=O)CC(NC(=O)OCc1ccccc1)C(C(C)=O)C(=O)OCc1ccccc1 (stereo not given)		> 31.6 µM		> 31.6 µM		> 31.6 µM		> 31.6 µM		> 31.6 µM		> 100 µM		> 100 µM		> 31.6 µM		30.8 µM		> 31.6 µM
O=c1c2c(=NCCN3CCCC3)cc3c(=O)n(CCCN4CCOCC4)c(=O)c4c(-c5ccc(CN6CCCC6)cc5)cc(c(O)n1CCCN1CCOCC1)c2c4-3	0.0257 µM	0.783 µM	0.0346 µM	0.651 µM	0.0195 µM	> 100 µM	< 0.0206 µM	5.37 µM	0.0247 µM	0.245 µM	0.0847 µM	0.724 µM	0.164 µM	0.796 µM	0.0617 µM	0.274 µM	0.0582 µM	0.228 µM	0.0412 µM	1.36 µM
NNC(=S)N/N=C(\C(=O)Nc1cccc(O)c1)C1C(=O)NC(=S)NC1=O		> 100 µM		> 100 µM		> 100 µM		> 100 µM		> 100 µM		> 100 µM		> 100 µM		> 100 µM		> 100 µM		> 100 µM
CCC(C)[C@H]1O[C@]2(CC[C@@H]1C)C[C@@H]1C[C@@H](C/C=C(\C)[C@@H](OC3C[C@H](OC)C(O[C@H]4C[C@H](OC)[C@@H](O)[C@H](C)O4)[C@H](C)O3)[C@@H](C)/C=C/C=C3\CO[C@@H]4[C@H](O)C(C)=C[C@@H](C(=O)O1)[C@]34O)O2 (stereo not given in full)	1.73 µM	3.48 µM	2.6 µM	11.2 µM	3.88 µM	15.4 µM	4.77 µM	20.2 µM	2.91 µM	10.6 µM	2.05 µM	5.67 µM	2.54 µM	10.9 µM	1.91 µM	3.96 µM	2.69 µM	7.56 µM	2.21 µM	10.6 µM
Fc1cc2[nH]ncc2c2c3c(c(-c4cn[nH]c4C(F)(F)F)nc12)CCCC3	0.947 µM	7.58 µM	1.81 µM	7.54 µM	2.07 µM	> 100 µM	0.802 µM	3.75 µM	1.16 µM	9.92 µM	2.49 µM	7.43 µM	2.15 µM	10.3 µM	1.29 µM	3.06 µM	1.5 µM	2.95 µM	2.57 µM	> 100 µM
C/C(=N\NC(=S)N1CCCCC1)c1ccccn1	< 0.0116 µM	7.34 µM	0.103 µM	5.22 µM	< 0.01 µM	8.76 µM	0.0175 µM	1.69 µM	< 0.0151 µM	1.5 µM	0.054 µM	13.7 µM	< 0.0115 µM	4.5 µM	0.257 µM	6.87 µM	1.66 µM	6.8 µM	< 0.0105 µM	10.6 µM
C=C1CC[C@@H]2[C@](C)(COC(C)=O)[C@H](OC(C)=O)CC[C@@]2(C)[C@@H]1CC(Nc1ccc(S(=O)(=O)NC(C)=O)cc1)C1=CCOC1=O (stereo not given in full)	7.54 µM	16.5 µM	3.31 µM	11.2 µM	2.58 µM	17.6 µM	2.2 µM	6.66 µM	6.72 µM	17.9 µM	4.82 µM	15.4 µM	11.5 µM	22 µM	2.39 µM	7.77 µM	3.08 µM	12.7 µM	3.49 µM	12 µM
Cc1cc(S(=O)(=O)Nc2nc3ccccc3o2)c(SCc2ccccc2)cc1Cl	17.9 µM	38.4 µM	19.6 µM	47.3 µM	31.8 µM	> 100 µM	24.4 µM	> 100 µM	15.5 µM	52.2 µM	20.3 µM	46.1 µM	19.2 µM	57 µM	19.1 µM	40.8 µM	38.6 µM	90.8 µM	16.1 µM	31 µM
